Reference: ChEMBL document CHEMBL5131518, “Discovery of 2-Phenylquinolines with Broad-Spectrum Anti-coronavirus Activity” (ACS Med Chem Lett, 2022)

How the values were obtained:
[1] = in vitro; settings: monkey, Vero E6 cells
Description: Selectivity index, ratio of CC50 for cytotoxicity against African green monkey Vero E6 cells to EC50 for antiviral activity against SARS-CoV-2 infected in eGFP expressing African green monkey Vero E6 cells

[2] = in vitro; settings: human, HEL 299 cells
Description: Selectivity index, ratio of CC50 for cytotoxicity against HEL 299 cells to EC50 for antiviral activity against HCoV-229E infected in HEL 299 cells

[3] = Inhibition of SARS-CoV-2 RdRp expressed in Escherichia coli BL21 DE3 co-expressing […] incubated for 1 hr by fluorescent based assay; parameters: species or system Severe acute respiratory syndrome coronavirus 2
[4] = test system: Severe acute respiratory syndrome coronavirus 2; assay: Inhibition of SARS-CoV-2 RdRp expressed in Escherichia coli BL21 DE3 co-expressing […] at 30 uM incubated for 1 hr by fluorescent bases assay
[5] = target: Replicase polyprotein 1ab (Severe acute respiratory syndrome coronavirus 2) (UniProt P0DTD1); assay: Inhibition of SARS-CoV-2 nsp13 ATPase-associated activity using ATP as substrate at highest concentration of compound incubated for 30 mins by Biomol Green Reagent based assay

| SMILES | selectivity ratio [1] | selectivity ratio [2] | IC50 [3] [µM] | inhibition [4] [%] | inhibition [5] [%] |
| --- | --- | --- | --- | --- | --- |
| CCCOc1ccc(-c2cc(OCCN(CC)CC)c3c(OC)c(OC)c(OC)cc3n2)cc1 | 2.9 |  |  |  |  |
| CCCOc1ccc(-c2cc(OCCN(CC)CC)c3cc(OC)cc(OC)c3n2)cc1 | > 7.7 | 12.4 |  |  |  |
| CCCOc1ccc(-c2cc(OCCN3CCCCC3)c3cc(OC)c(OC)cc3n2)cc1 | 4.3 | 52.4 |  |  |  |
| CCCOc1ccc(-c2cc(OCCN3CCCCC3)c3c(OC)ccc(OC)c3n2)cc1 | 8.8 | 10.2 | > 30 | 100 |  |
| CCCOc1ccc(-c2cc(OCCN(CC)CC)c3cc(OC)c(OC)cc3n2)cc1 | 13.8 | 5.2 |  |  |  |
| CCCOc1ccc(-c2cc(OCCN3CCN(Cc4ccccc4)CC3)c3cccc(OC)c3n2)cc1 | 2.8 |  |  |  |  |
| CCCOc1ccc(-c2cc(OCCN3CCNCC3)c3cccc(OC)c3n2)cc1 | 4.3 | 25.6 |  |  |  |
| CCCOc1ccc(-c2cc(OCCN3CCc4cc(OC)c(OC)cc4C3)c3c(OC)cc(OC)cc3n2)cc1 |  |  | > 30 |  |  |
| CCCOc1ccc(-c2cc(OCCN(CC)CC)c3c(OC)ccc(OC)c3n2)cc1 | 5.3 | 13.8 |  |  |  |
| CCCOc1ccc(-c2cc(OCCN3CCCC3)c3cc(OC)c(OC)cc3n2)cc1 | 1.3 |  |  |  |  |
| C=CCn1c(S)nnc1CSc1ccccc1[N+](=O)[O-] |  |  |  |  | 90 |
| CCCOc1ccc(-c2cc(OCCN3CCCC3)c3cc(OC)cc(OC)c3n2)cc1 | > 16.9 | > 2.5 | > 30 | 100 |  |
| CCCOc1ccc(-c2cc(OCCN3CCN(Cc4ccccc4)CC3)c3ccccc3n2)cc1 | > 8.4 | > 1.6 |  |  |  |
| CCCOc1ccc(-c2cc(OCCN3CCCC3)c3c(OC)ccc(OC)c3n2)cc1 | 7.9 | 13.4 |  |  |  |
| CCCOc1ccc(-c2cc(OCCN3CCN(Cc4ccccc4)CC3)c3c(OC)cc(OC)cc3n2)cc1 | > 12.7 | 16.4 | > 30 | 100 |  |
| CCCOc1ccc(-c2cc(OCCN(CC)CC)c3cccc(OC)c3n2)cc1 | > 11 | 8.2 |  |  |  |
